One assay deals with T1, HSL (Homo sapiens, UniProt Q05469).
T1 sequence (Q05469 1-1076): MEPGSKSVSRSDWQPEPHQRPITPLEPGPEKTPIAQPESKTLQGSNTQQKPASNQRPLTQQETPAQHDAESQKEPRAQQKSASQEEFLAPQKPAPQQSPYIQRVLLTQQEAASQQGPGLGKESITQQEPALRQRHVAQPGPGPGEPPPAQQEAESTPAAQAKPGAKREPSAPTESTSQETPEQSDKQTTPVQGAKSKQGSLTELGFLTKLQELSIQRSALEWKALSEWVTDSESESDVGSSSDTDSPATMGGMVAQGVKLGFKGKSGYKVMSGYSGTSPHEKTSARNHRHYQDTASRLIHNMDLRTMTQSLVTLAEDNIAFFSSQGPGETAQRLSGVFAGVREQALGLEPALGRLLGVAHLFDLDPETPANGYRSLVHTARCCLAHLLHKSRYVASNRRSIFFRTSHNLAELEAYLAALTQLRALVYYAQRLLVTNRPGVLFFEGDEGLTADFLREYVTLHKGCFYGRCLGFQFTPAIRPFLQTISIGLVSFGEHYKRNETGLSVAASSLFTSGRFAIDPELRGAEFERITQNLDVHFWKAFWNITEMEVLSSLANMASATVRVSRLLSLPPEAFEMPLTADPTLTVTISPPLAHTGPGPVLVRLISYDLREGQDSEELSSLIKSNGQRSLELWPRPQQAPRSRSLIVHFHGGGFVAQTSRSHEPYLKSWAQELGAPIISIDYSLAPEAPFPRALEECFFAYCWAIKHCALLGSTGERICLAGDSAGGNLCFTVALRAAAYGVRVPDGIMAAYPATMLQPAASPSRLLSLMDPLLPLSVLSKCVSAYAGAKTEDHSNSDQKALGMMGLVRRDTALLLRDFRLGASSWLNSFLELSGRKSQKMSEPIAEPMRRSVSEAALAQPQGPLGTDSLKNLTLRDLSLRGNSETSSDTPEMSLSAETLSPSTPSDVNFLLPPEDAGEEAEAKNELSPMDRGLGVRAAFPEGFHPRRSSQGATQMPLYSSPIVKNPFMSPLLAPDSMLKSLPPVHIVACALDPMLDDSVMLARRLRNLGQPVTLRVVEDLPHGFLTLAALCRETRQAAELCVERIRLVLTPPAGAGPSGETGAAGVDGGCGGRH
The assay can be described thus: TEST 3180.2 HSL: percent inhibition at 10 μM, 3H-Triolein lipid emulsion. Type of assay: biochemical. Particulars: 10 µM.
Consider “3-Fluoro-4-phenylboronic acid [Example 72]”, for which the “TEST 3180.2 HSL Activity (%)” value was 97%.

Still in this assay, the particulars now being: 10 μM concentration; percent activity relative to an un-inhibited sample; 30 min preincubation, 30 min reaction at 25° C.
For the molecule `OB(O)c1ccc(OCc2ccccc2)c(F)c1` [Example 62, 3-FLUORO-4-BENZYLOXYPHENYL)BORONIC ACID], the “TEST 3180.2 HSL Activity (%)” value amounted to 93%.

Take `COC1OC2COB(c3ccccc3)OC2C(O)C1O` (stereo not shown) [Example 78, 6-Methoxy-2-phenyl-hexahydro-pyrano[3,2-a][1,3,2]dioxaborinine-7,8-diol]: the “TEST 3180.2 HSL Activity (%)” value came to 82%.

For `CC1(C)OB(c2ccsc2[Si](C)(C)C)OC1(C)C` [Example 81, 3′-(4,4,5,5-TETRAMETHYL-1,3,2-DIOXABOROLAN-2-YL)-2-trimethylsilylthiophen], the “TEST 3180.2 HSL Activity (%)” value amounted to 85%.

Regarding `CC1(C)OB(c2csc([N+](=O)[O-])c2)OC1(C)C` [Example 82, 4′-(4,4,5,5-TETRAMETHYL-1,3,2-DIOXABOROLAN-2-YL)2-nitrothiophene], the “TEST 3180.2 HSL Activity (%)” value is recorded as 96%.

The assay is the same for the next values; noted with them: 10 μM concentration; percent activity relative to an un-inhibited sample; 30 min preincubation, 30 min reaction at 25° C.; read-out: TEST 3180.2 HSL Activity (%).
For `OB(O)c1ccc(OCc2ccccc2)cc1` [Example 33, 4-Benzyloxyphenylboronic acid], the activity at 10 µM was determined as 85%.

`CC1(C)COB(c2cc(F)cc(F)c2)OC1` [Example 35, 2-(3,5-DIFLUOROPHENYL)-5,5-DIMETHYL-1,3,2-DIOXABORINANE]: the activity at 10 µM turned out to be 38%.

As to `CC1(C)COB(c2ccc(Br)cc2)OC1` [Example 37, 2-(4-BROMOPHENYL)-5,5-DIMETHYL-1,3,2-DIOXABORINANE], the activity at 10 µM was determined as 83%.

On to `CC1(C)COB(c2ccccc2Cl)OC1` [Example 38, 2-(2-chloroPHENYL)-5,5-DIMETHYL-1,3,2-DIOXABORINANE], for which the activity at 10 µM amounted to 89%.

Regarding `CC1(C)COB(c2ccccc2C#N)OC1` [Example 39, 2-(5,5-Dimethyl-[1,3,2]dioxaborinan-2-yl)-benzonitrile], the activity at 10 µM is 97%.

Take `CC1(C)COB(c2ccccc2F)OC1` [Example 40, 2-(2-Fluoro-phenyl)-5,5-dimethyl-[1,3,2]dioxaborinane]: the activity at 10 µM worked out at 68%.

On to `CCOC(=O)c1ccccc1B1OCC(C)(C)CO1` [Example 42, 2-(5,5-Dimethyl-[1,3,2]dioxaborinan-2-yl)-benzoic acid ethyl ester], for which the activity at 10 µM came out at 93%.

As for `COc1ccc(Cl)cc1B(O)O` [Example 43, 5-CHLORO-2-METHOXYPHENYLBORONIC ACID], the activity at 10 µM is 36%.

With `OB(O)c1cc(Br)cc(Br)c1` [Example 44, 3,5-Dibromophenylboronic acid], the activity at 10 µM came out at 71%.

On to `CCOc1cccc(B(O)O)c1` [Example 45, 3-Ethoxyphenylboronic acid], for which the activity at 10 µM came to 90%.

On to `OB(O)c1cccc(-c2ccccc2)c1` [Example 46, 3-phenylphenylboronic acid], for which the activity at 10 µM worked out at 96%.

On to `OB(O)c1ccc(F)cc1` [Example 47, 4-fluorophenylboronic acid], for which the activity at 10 µM stood at 65%.

As for `OB(O)c1ccccc1Br` [Example 48, 2-Bromophenylboronic acid], the activity at 10 µM turned out to be 81%.

For the molecule `OB(O)c1cccc(Br)c1` [Example 49, 3-Bromophenylboronic acid], the activity at 10 µM amounted to 33%.

On to `OB(O)c1c(Cl)cccc1Cl` [Example 50, 2,6-Dichlorophenylboronic acid], for which the activity at 10 µM came to 88%.

On to `Cc1cccc(B(O)O)c1` [Example 51, 3-Methylphenylboronic acid], for which the activity at 10 µM was 64%.

In the case of `OB(O)c1ccccc1Cl` [Example 52, 2-Chlorophenylboronic acid], the activity at 10 µM stood at 86%.

With `OB(O)c1cccc(Cl)c1` [Example 53, 3-Chlorophenylboronic acid], the activity at 10 µM worked out at 34%.

Take `OB(O)c1cccc(OC(F)(F)F)c1` [Example 54, 3-(TRIFLUOROMETHOXY)BENZENEBORONIC ACID]: the activity at 10 µM stood at 27%.

Turning to `OB(O)c1cccc(C(F)(F)F)c1` [Example 55, 3-Trifluoromethylphenylboronic acid], the activity at 10 µM worked out at 21%.

As for `OB(O)c1cc(C(F)(F)F)cc(C(F)(F)F)c1` [Example 56, 3,5-Bis(Trifluoromethyl)phenylboronic acid], the activity at 10 µM is 89%.

As to `OB(O)c1cc(Cl)cc(Cl)c1` [Example 57, 3,5-Dichlorophenylboronic acid], the activity at 10 µM came out at 46%.

`OB(O)c1ccc(F)c(Cl)c1` [Example 58, 3-Chloro-4-fluorophenylboronic acid]: the activity at 10 µM amounted to 35%.

As to `OB(O)c1cc(F)cc(F)c1` [Example 59, 3,5-Difluorophenylboronic acid], the activity at 10 µM worked out at 25%.

On to `OB(O)c1cccc(F)c1` [Example 60, 3-Fluorophenylboronic acid], for which the activity at 10 µM was 47%.

For the molecule `CCCCCc1ccc(B(O)O)c(F)c1F` [Example 61, 2,3-DIFLUORO-4-PENTYLPHENYLBORONIC ACID], the activity at 10 µM came out at 85%.

In the case of `OB(O)c1cc(F)c(F)c(F)c1` [Example 63, 3,4,5-Trifluorophenylboronic acid], the activity at 10 µM is 26%.

Consider `OB(O)c1cc(Cl)cc(Cl)c1Cl` [Example 64, 2,3,5-Trichlorophenylboronic acid], for which the activity at 10 µM turned out to be 76%.

Take `OB(O)c1cc(Cl)ccc1Cl` [Example 65, 2,5-Dichlorophenylboronic acid]: the activity at 10 µM is 55%.

On to `OB(O)c1cccc(F)c1F` [Example 66, 2,3-Difluorophenylboronic acid], for which the activity at 10 µM stood at 55%.

In the case of `OB(O)c1cc(F)ccc1F` [Example 67, 2,5-Difluorophenylboronic acid], the activity at 10 µM was 34%.

For the molecule `CC(=O)Nc1ccc(B2OC(C)(C)C(C)(C)O2)cc1` [Example 68, 4′-(4,4,5,5-TETRAMETHYL-1,3,2-DIOXABOROLAN-2-YL)ACETANILIDE], the activity at 10 µM is 86%.

With `OB(O)c1ccc(F)c(F)c1` [Example 69, 3,4-Difluorophenylboronic acid], the activity at 10 µM was found to be 45%.

`OB(O)c1cccc(Cl)c1Cl` [Example 70, 2,3-Dichlorophenylboronic acid]: the activity at 10 µM stood at 66%.

Consider `OB(O)c1ccc(Br)c(F)c1F` [Example 71, 2,3-Difluoro-4-bromophenylboronic acid], for which the activity at 10 µM came to 61%.

In the case of `COc1ccc(F)cc1B(O)O` [Example 73, 2-Methoxy5-fluorophenylboronic acid], the activity at 10 µM amounted to 62%.

As to `CCCCCC1COB(c2ccc(C(=O)O)c(F)c2)OC1` [Example 79, 2-Fluoro-4-(5-pentyl-[1,3,2]dioxaborinan-2-yl)-benzoic acid], the activity at 10 µM was determined as 100%.

With `Ic1cccc(OCC2COB(c3ccccc3)O2)c1` (stereo not shown) [Example 80, 4-(3-Iodo-phenoxymethyl)-2-phenyl-[1,3,2]dioxaborolane], the activity at 10 µM was 80%.

As to `OB(O)c1csc2ccccc12` [Example 83, 1-BENZOTHIOPHEN-3-YLBORONIC ACID], the activity at 10 µM is 76%.

As for `O=Cc1sccc1B(O)O` [Example 84, 2-FORMYL-3-THIOPHENEBORONIC ACID], the activity at 10 µM was found to be 92%.

Regarding `c1ccc2c(c1)OB(c1ccsc1)O2` [Example 85, 2-THIEN-3-YL-1,3,2-BENZODIOXABOROLE], the activity at 10 µM stood at 89%.

For the origin of these results see US7037905B2, “Pharmaceutical use of boronic acids and esters thereof” (Novo Nordisk A/S, priority 2002, dated 2006).
